# Laboratory results: patent US8614236B2 (University of Washington, priority 2006, dated 2013)
# “Also recorded” adds a separate entry of the source. Bridge positions count the residues as written; N and C are the ends. Ends that are not written are not given here.
# Key:
# [1] = test system: PASMCs; assay: Changes in membrane potential (Em) in PASMCs, DiBAC4(3) fluorescence; format: cell-based, rat; conditions: agent alone; for increase in DiBAC4(3) fluorescence: KCl 60 mM, ET-1 10^−8 M
# Protocol: (§1) The method for obtaining single PASMCs has been described previously in Shimoda L. A., et al., Am J Physiol 274: 842-853 (1998), which is hereby incorporated by reference in its entirety. Intrapulmonary arteries (200-600 μm o.d.) were isolated from male Wistar rats (250-350 g) and cleaned of connective tissue. After the lumen was gently rubbed with a cotton swab to remove the endothelial cells, the arteries were allowed to recover for 30 minutes in cold (4° C.) HBSS containing (in mM): 130 NaCl, 5 KCl, 1.2 MgCl2, 1.5 CaCl2, 10 N-[2-hydroxyethyl]piperazine-N′-[2-ethanesulfonic acid] (HEPES) and 10 glucose, with pH adjusted to 7.2 with 5 M NaOH, followed by 20 minutes in reduced-Ca^2+ (20 μM CaCl2) HBSS at room temperature. The tissue was enzymatically digested in reduced-Ca^2+ HBSS containing collagenase (type I; 1750 U/ml), papain (9.5 U/ml), bovine serum albumin (2 mg/ml) and dithiothreitol (1 mM) at 37° C. for 20 minutes. Following digestion, single smooth muscle cells were dispersed by gentle trituration with a wide-bore transfer pipette in Ca^2+-free HBSS and the cell suspension was placed on 25 mm glass cover slips. PASMCs were transiently cultured in Ham's-F-12 media supplemented with 0.5% fetal bovine serum and 1% penicillin/streptomycin for 24-48 hrs. before study.
# Changes in membrane potential were measured using the fluorescence dye, DiBAC4(3), which was excited at 490 nm and detected at 510 nm. Cells were loaded by continuous perfusion with Kreb's solution containing 500 nM DiBAC4(3) and were perfused for at least 15 minutes before beginning measurements to insure stable uptake of dye. Baseline DiBAC4(3) fluorescence was monitored for 5 minutes with control Kreb's, followed by 10 minutes with Kreb's in the presence or absence of AZ (100 μM). At the end of this period, cells were challenged with KCl (60 mM) or endothelin-1 (ET-1) (10^−8 M). Since DiBAC4(3) is a single wavelength dye, any change in the concentration of the dye in the perfusion medium (i.e., differing concentrations between perfusion reservoirs) could result in a change in fluorescence that is not due to a change in membrane potential. To minimize the possibility of this type of error, all experiments were performed using inflow from a single reservoir into which AZ, KCl or ET-1 were dissolved directly.
# AZ has recently been proposed to alter the activation of Ca^2+-activated K^+ channels, causing hyperpolarization. See Pickkers P., et al., Br J Pharmacol 132: 443-450 (2001); Tricarico D., et al., Ann Neurol 48: 304-312 (2000); and Tricarico D., et al., Faseb J 18: 760-761 (2004), which are hereby incorporated by reference in their entirety. Since depolarization is believed to contribute to the hypoxia-induced increase in [Ca^2+]i, AZ-induced hyperpolarization could prevent activation of voltage-gated Ca^2+ channels and an increase in [Ca^2+]i in response to hypoxia. In order to test this possibility, the Em-sensitive fluorescent dye, DiBAC4(3) was used. […] Baseline fluorescence was relatively stable over time, decreasing by 4.11±0.4% over 10 minutes (n=90 cells).
# [2] = test system: PASMCs; assay: KCl-induced Ca2+ responses in PASMCs; format: cell-based, rat; conditions: 100 μM
# Protocol: as §1, with “Intrapulmonary” for “The method for obtaining single PASMCs has been described previously in Shimoda L. A., et al., Am J Physiol 274: 842-853 (1998), which is hereby incorporated by reference in its entirety. Intrapulmonary”, “The tissue was enzymatically digested in reduced-Ca^2+ HBSS containing collagenase (type I; 1750 U/ml), papain (9.5 U/ml), bovine serum albumin (2 mg/ml) and dithiothreitol (1 mM) at 37° C. for 20 minutes.” left out
# (§2) Acute hypoxia increases intracellular [Ca^2+] in pulmonary arterial smooth muscle by enhancing capacitative Ca^2+ entry. […] Ratiometric measurement of fluorescence from the dye was performed on a workstation (Intracellular Imaging Inc, Cincinnati, Ohio) consisting of a Nikon TSE 100 Ellipse inverted microscope with epi-fluorescence attachments. The light beam from a xenon arc lamp was filtered at 340 and 380 nm, and focused onto the PASMCS under examination via a 20× fluorescence objective (Super Fluor 20, Nikon). Light emitted from the cell at 510 nm was returned through the objective and detected by a cooled CCD imaging camera. An electronic shutter (Sutter Instruments) was used to minimize photobleaching of dye. Protocols were executed and data collected on-line with InCyte software (Intracellular Imaging Inc). [Ca^2+]i was estimated from in vitro calibration solutions.
# [3] = test system: PASMCs; assay: Intracellular pH (pHi) in PASMCs (BCECF-AM); format: cell-based, rat
# Protocol: as §1
# pHi within PASMCs was monitored using the cell permeant pH sensitive dye 2′,7′-bis(carboxyethyl)-5(6)-carboxyflourescein (BCECF-AM). Cells were incubated with BCECF-AM for 60 min at 37° C. under an atmosphere of 21% O2-5% CO2. Cells were then washed with Kreb's solution for 15 min at 37° C. to remove extracellular dye and allow complete de-esterification of cytosolic dye. Cells were excited with light at 490 and 440 nm and light emitted from the cells was detected at 530 nm. The ratio of 490 to 440 nm emission was calculated and converted into pH values by performing a calibration curve after each experiment. PASMCs were subjected to a high K^+ buffer containing 10 μM nigericin, which allowed the cell to adopt the pH of the high K^+ buffer. Two high K^+/nigericin buffers were used to set pH to 6.5 or 7.5, pHi was estimated from in situ calibration after each experiment. Cells were perfused with a solution containing (in mM): 105 KCl, 1 MgCl2, 1.5 CaCl2, 10 glucose, 20 HEPES-Tris and 0.01 nigericin to allow pHi to equilibrate to external pH as in Quinn D. A., et al., Am J Respir Cell Mol Biol 5: 586-591 (1991), which is hereby incorporated by reference in its entirety. A two point calibration was created from fluorescence measured as pHi was adjusted with KOH from 6.5 to 7.5. Intracellular H^+ ion concentration ([H^+]i) was determined from pHi using the formula: pHi=−log ([H^+]i).
# [4] = test system: PASMCs; assay: Hypoxia-induced increase in [Ca2+]i in PASMCs (4% O2); format: cell-based, rat
# Protocol: as §1, with “Intrapulmonary” for “The method for obtaining single PASMCs has been described previously in Shimoda L. A., et al., Am J Physiol 274: 842-853 (1998), which is hereby incorporated by reference in its entirety. Intrapulmonary”, “The tissue was enzymatically digested in reduced-Ca^2+ HBSS containing collagenase (type I; 1750 U/ml), papain (9.5 U/ml), bovine serum albumin (2 mg/ml) and dithiothreitol (1 mM) at 37° C. for 20 minutes.” left out
# as §2
# [5] = test system: carbonic anhydrase; assay: Carbonic anhydrase inhibition; format: biochemical
# Description: Benzolamide (BZ) was obtained from Dr. Thomas H. Maren, University of Florida Department of Pharmacology.
# [6] = test system: PASMCs; assay: Basal intracellular Ca2+ concentration in PASMCs (Fura-2); format: cell-based, rat
# Protocol: as §1, with “Intrapulmonary” for “The method for obtaining single PASMCs has been described previously in Shimoda L. A., et al., Am J Physiol 274: 842-853 (1998), which is hereby incorporated by reference in its entirety. Intrapulmonary”, “The tissue was enzymatically digested in reduced-Ca^2+ HBSS containing collagenase (type I; 1750 U/ml), papain (9.5 U/ml), bovine serum albumin (2 mg/ml) and dithiothreitol (1 mM) at 37° C. for 20 minutes.” left out
# as §2
compound,measurement,setting,value
[Cl-].[K+] [KCl],increase in DiBAC4(3) fluorescence,[1],61.58±12.8%
CNS(=O)(=O)c1nnc(NC(C)=O)s1 [N-Meth-AZ],effect on KCl-induced increase in [Ca^2+]i,[2],similar
same,"basal pHi, Treatment",[3]; 100 μM,7.12±0.01
same,effect on basal pHi,[3]; 100 μM,no significant effect; also recorded: minimal effect
same,"basal pHi, Baseline",[3]; before the compound,7.13±0.02
same,increase in [Ca^2+]i induced by hypoxia,"[4]; 100 μM, control 141.1±32.2 nM",33.2 ± 17.4 nM
same,effect on hypoxia-induced increase in [Ca^2+]i,[4]; 10-100 μM,markedly reduced; also recorded: prevented
same,CA inhibiting action,[5],no CA inhibiting action
same,"basal [Ca^2+]i, Treatment","[6]; 100 μM, after 10 min of perfusion",200.9 ± 11.3 nM
same,"basal [Ca^2+]i, Baseline",[6]; before perfusion with the compound,193.4 ± 11.0 nM
CC(N/C(=N\C#N)Nc1ccncc1)C(C)(C)C (stereo not drawn) [pinacidil],decrease in DiBAC4(3) fluorescence,[1]; 100 μM,19.76±3.3%
"endothelin-1 (CSCSSLMDKECVYFCHLDIIW; disulfide 1-15, 3-11; ends not checked; UniProt P05305 53-73, looked up) [ET-1]",increase in DiBAC4(3) fluorescence,[1],75.6±13.4%
